Source: patent US20110105389A1 (priority 2009, published 2011)

Key:
[1] = Metabolic stability in human liver microsomes, Method B8; type: in vitro ADME; settings: human liver microsomes 0.8 mg/mL, 5 μM compound, 37° C.
Text: B8. Metabolic Stability in Human Liver Microsomes
The liver is the primary site for phase I (oxidation) and phase II (glucuronidation) enzymatic activity responsible for xenobiotic metabolism. Human liver microsomes are used as in vitro screen of metabolic activity for candidate drugs. Similar studies can be run with microsomes from other species, such as those used for in vivo studies, to determine any significant species differences in the stability profile. The aim of this study was to measure the broad-spectrum metabolic stability of representative compounds of the invention. The key aspects of the experimental design are summarized below: • Human liver microsomes (mixed pool of 15 male and female donors) were purchased from In Vitro Technologies (Baltimore, Md.). • Microsomes characterized for phase I (Cyp2A6, 2D6, 2E1, 1A2, 2C19, 3A4, 4A) and phase II (glucuronidation) enzymatic activity. • Assays are performed using a final concentration of 0.8 mg/mL of microsomes in 100 mM potassium phosphate buffer (1.5 mM NADPH, 8 mM MgCl2, pH 7.4, 37° C.). • Compounds are tested in duplicate samples at a single concentration of 5 μM (0.05% DMSO). • Test articles are incubated with the microsomes at 37° C.

[2] = biological target: T1, GHS-R1a receptor (HEK293 cells expressing GHS-R1a receptor) (Homo sapiens, UniProt Q92847); experiment: Fluorescence functional assay (ghrelin receptor), Method B2, agonist and antagonist mode; type: cell-based; settings: functional activity as an antagonist at the ghrelin receptor, Methods B2 and B3
T1 construct: host or cells: HEK293
T1 sequence (Q92847 whole entry): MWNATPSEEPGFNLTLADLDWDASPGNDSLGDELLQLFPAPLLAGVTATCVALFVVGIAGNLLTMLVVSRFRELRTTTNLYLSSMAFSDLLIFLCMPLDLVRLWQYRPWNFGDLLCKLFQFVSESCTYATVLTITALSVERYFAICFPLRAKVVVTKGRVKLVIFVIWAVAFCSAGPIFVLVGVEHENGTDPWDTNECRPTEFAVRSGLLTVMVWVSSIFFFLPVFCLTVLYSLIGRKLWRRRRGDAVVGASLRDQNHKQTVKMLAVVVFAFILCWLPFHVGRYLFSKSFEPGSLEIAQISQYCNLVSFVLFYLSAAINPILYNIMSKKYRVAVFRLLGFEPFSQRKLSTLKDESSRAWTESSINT
Description: • 1. ImageTrak Epi-Fluorescence system (Perkin-Elmer) • 2. MultiDrop TiterTek • 3. CO2 incubators: 5% CO2, humidified, 37° C.
• 1. Hanks' BSS without phenol red (Life Technologies) • 2. Hepes buffer • 3. Probenecid (Sigma) • 4. […] Falcon cell culture 96-well black/clear bottom plates • 6. 0.05% trypsin-EDTA • 7. Cells: HEK293 cells expressing GHS-R1a receptor (Perkin-Elmer BioSignal) were grown in DMEM (Dulbecco's Modified Eagles Medium) with 10% FBS, 1% sodium pyruvate, 1% NEAA and 400 μg/mL geneticin • 8. […] [D-Lys^3]-GHRP-6 (reference antagonist, Phoenix #031-22) • 10. Assay buffer: HBSS-20 mM Hepes containing 2.5 mM probenecid and 0.1% BSA (bovine serum albumin); pH 7.4
Stock solutions of compounds (10 mM in 100% DMSO) were provided frozen on dry ice and stored at −80° C. prior to use. […] Assay plates were then prepared by appropriate dilution in assay buffer.
Typical Final Test Concentrations (N=10) for Test Compounds (agonist):
Typical Final Test Concentrations (N=10) for Test Compounds (antagonist):
Cells were maintained in culture as indicated above. The cells were harvested at a confluency of 70-90% the day before the experiment. Growth medium was removed and the cells rinsed briefly with PBS without Ca^+2 and Mg^+2. 0.05% Trypsin was added and the plates incubated at 37° C. for 5 min to detach the cells. DMEM medium supplemented with 10% FBS was added to inactivate the trypsin and determine the cell concentration. The inoculum was adjusted to a final concentration of 200 cells/μL and dispensed at 200 μL per well into a 96-well block plate. The plates were, incubated at 37° C. overnight.
The plates were removed from the incubator and the media removed by inversion of the plates. Calcium-3 dye, 50 μL, was loaded and then incubated for 1 h at 37° C. The plate was again inverted and then 25 μL of assay buffer added. The plates were then transferred to the ImageTrak system for analysis. For agonist testing, after reading for ten (10) sec, 25 μL of 2× test compound or control was injected into the assay plate. Fluorescence was monitored for an additional 50 sec. A reading was taken every two (2) seconds for a total of 30 readings per assay point.
For antagonist testing, after reading for ten (10) sec, 12.5 μL of 3× test compound or control was injected into the assay plate and allowed to react for three (3) min.
Concentration response curves were analyzed using GraphPad Prism (GraphPad Software, San Diego, Calif.) by non-linear regression analysis (sigmoidal dose-response). EC50 values are calculated using GraphPad.
Emax values were calculated using the following formula: […]
Concentration response curves were analyzed using GraphPad Prism (GraphPad Software, San Diego, Calif.) by non-linear regression analysis (sigmoidal dose-response). IC50 values are calculated using GraphPad.
Imax values were calculated using the following formula: […]

[3] = biological target: T2, ghrelin receptor (HEK-GHSR1 stable cells) (Homo sapiens, UniProt Q92847); experiment: Ghrelin receptor inverse agonist assay (HTRF IP-one), Method B4; type: cell-based; settings: inverse agonist at the ghrelin receptor, Method B4
T2 construct: expressed in transfected cells
T2 sequence (Q92847 whole entry): as above
Text: B4. Ghrelin Receptor Inverse Agonist Assay […]
In addition, the following method can be utilized to assay for inverse agonist activity. (Thomsen, W.; et al. Curr. Opin. Biotechnol. 2005, 16, 655-665; Tozawa-Takahashi F; et al., 11th SBS Annual Conference. September 2005, Geneva; Trinquet, E.; Fink, M.; Bazin, H.; et al. Anal. Biochem. 2006, 358, 126-135; Bergsdorf, C.; Kropp-Goerkis, C.; Kaehler, I.; Ketscher, L.; Boerner, U.; Parczyk, K.; Bader, B. Assay Drug Dev. Technol. 2008, 6, 39-53.)
• 1. Remove culture medium from the plate by inversion. • 2. Add 70 μl of compound/well. • 3. Incubate 30 min at 37° C. • 4. Stop the reaction by adding 15 μl of lysis buffer/well. • 5. Add 15 μl of d2/well. • 6. Add 15 μl of Anti-IP1 cryptate/well. • 7. Incubate 1 h at room temp on an orbital shaker at 100 RPM. • 8. Read the fluorescence in a plate reader (Tecan GeniosPro or similar)
The above sequence was performed using the HTRF IP-one kit (CisBio cat#62P1APEC). For the simultaneous assay of multiple test compounds, 96-well plates can be utilized in this assay (white plate with flat-bottom well, Falcon #353296). These were seeded overnight with 100 000 of HEK-GHSR1 stable cells/well. • Wells A1 and A2 of each plate are used as negative control (wells without d2). Compounds are typically tested in replicate at the following concentrations:
Compounds are stored at 10 mM in 100% DMSO.
1st dilution 1/10 in 100% DMSO (1 mM final concentration).
2nd dilution 1/10 in H2O (0.1 mM final concentration).
Other dilutions are performed in a 96-well plate in stimulation buffer.
The results for representative compounds of the invention are provided in the Examples.

[4] = biological target: T3, human ghrelin receptor (GRLN, growth hormone secretagogue receptor, hGHS-R1a) (Homo sapiens, UniProt Q92847); experiment: Competitive radioligand binding assay (ghrelin receptor), Method B1; settings: Ghrelin receptor binding activity, Method B1
T3 construct: purchased PerkinElmer BioSignal #RBHGHSM, lot#1887; host or cells: HEK-293 cells, stably transfected (membranes)
T3 sequence (Q92847 whole entry): as above
Summary of the method: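 Filtration competition format: bound radioactivity counted after GF/C harvesting and cold 50 mM Tris-HCl washes. Incubation lasted 30 min at room temperature in Hepes pH 7.4 buffer with Ca2+, Mg2+, EDTA and 0.4% BSA (DMSO ≤0.1% final); values from variable-slope non-linear regression.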

[5] = Pharmacokinetic analysis (intravenous and oral), Method B9; type: in vivo; settings: Table 10b; for Cl / t1/2: 2 mg/mL intravenous typically employed
Text: B9. Pharmacokinetic Analysis
The pharmacokinetic (PK) behavior of compounds of the invention and their pharmaceutical compositions can be ascertained by methods well known to those skilled in the art and can be used to investigate the pharmacokinetic parameters (elimination half-life, total plasma clearance, etc.) for intravenous, subcutaneous and oral administration of these substances. (Wilkinson, G. R. “Pharmacokinetics: The Dynamics of Drug Absorption, Distribution, and Elimination” in Goodman & Gilman's The Pharmacological Basis of Therapeutics, Tenth Edition, Hardman, J. G.; Limbird, L. E., Eds., McGraw Hill, Columbus, Ohio, 2001, Chapter 1.) See also U.S. Pat. Nos. 7,476,653; 7,491,695; Intl. Pat. Appl. WO 2008/033328 and U.S. Patent Appl. Publ. 2008/0194672. As an example, compound 1505 has the PK profile below.
The determination of PK parameters for additional representative compounds of the invention is presented in the Examples.
A detailed analysis of the pharmacokinetic profile of representative compounds of the invention was conducted using the procedures outlined in Method B9.
A dose level of 2 mg/mL for intravenous administration and 8 mg/mL for oral administration were typically employed.

Row | SMILES | HLM, metabolic stability in human liver microsomes [1] [μL/min/mg protein] | Antagonist Activity [2] | IC50 [3] [nM] | IC50 [4] [nM] | % F ([5]; 2 mg/mL intravenous and 8 mg/mL oral typically employed) [%] | Cl [5] [mL/min/kg] | t1/2 [5] [h]
1 | CC(C)[C@@H]1NCCOc2ccc(F)cc2CCCNC(=O)[C@@H](Cc2ccccc2)NC(=O)[C@H](C(C)O)N(C)C1=O (some centres unmarked) [Compound 1377] | 65.5 |  |  |  |  |  | 
2 | CC(C)[C@@H]1NCCOc2ccccc2CC[C@@H](C)NC(=O)[C@@H](Cc2cccc(C(F)(F)F)c2)NC(=O)[C@H](C(C)O)N(C)C1=O (some centres unmarked) [Compound 1412] | 35.4 |  |  |  |  |  | 
3 | COc1cccc(C[C@H]2NC(=O)[C@H](C(C)O)N(C)C(=O)[C@H](C(C)C)NCCOc3cc(F)ccc3CC[C@@H](C)NC2=O)c1 (some centres unmarked) [Compound 1473] | 14.2 |  |  |  |  |  | 
4 | CCC1CCc2ccc(F)cc2OC(C)CNC(C2(C)CC2)C(=O)N(C)C(C(C)O)C(=O)NC(Cc2ccccc2)C(=O)N1 (centres unmarked) [Compound 1705] |  | C (C = 10-100 nM) | 100 to 500 | 10 to 100 | 50 ± 14 | 6 ± 2 | 2.77 ± 0.033
5 | CC[C@@H]1CCc2ccc(F)cc2OCCN[C@@H](C2(C)CC2)C(=O)N(C)[C@@H](C(C)O)C(=O)N[C@H](Cc2cccc(F)c2)C(=O)N1 (some centres unmarked) [Compound 1747] |  | B (B = 1-10 nM) | 50 to 100 | 10 to 100 |  |  | 
6 | CC[C@@H]1CCc2ccc(F)cc2OCCN[C@@H](C(C)C)C(=O)N(C)[C@@H](C(C)O)C(=O)N[C@H](Cc2ccc(Cl)cc2)C(=O)N1 (some centres unmarked) [Compound 1753] |  | B (B = 1-10 nM) | 50 to 100 | 10 to 100 |  |  | 
7 | CCC(C)C1NCCOc2cccc(F)c2C=CCNC(=O)C(Cc2ccc(Cl)cc2)NC(=O)C(C(C)O)N(C)C1=O (centres unmarked) [Compound 1799] |  | C (C = 10-100 nM) | 50 to 100 | 1 to 10 |  |  | 
8 | CC1CCc2ccccc2OCCNC(C(C)C)C(=O)N(C)C(C(C)O)C(=O)NC(Cc2c[nH]c3ccc(F)cc23)C(=O)N1 (centres unmarked) [Compound 1801] |  | B (B = 1-10 nM) | 10 to 50 | 1 to 10 |  |  | 
9 | CCC1CCc2ccc(F)cc2OCCNC(C(C)C)C(=O)N(C)C(C(C)O)C(=O)NC(Cc2c[nH]c3ccc(F)cc23)C(=O)N1 (centres unmarked) [Compound 1803] |  | B (B = 1-10 nM) | 10 to 50 | 1 to 10 |  | 10 ± 1 | 1.72 ± 0.217
10 | CCC1CCc2ccc(F)cc2OCCNC(C(C)C)C(=O)N(C)C(C(C)O)C(=O)NC(C(C)c2ccccc2)C(=O)N1 (centres unmarked) [Compound 1805] |  | C (C = 10-100 nM) | 100 to 500 | 10 to 100 |  |  | 
11 | CCC1CCc2ccc(Cl)cc2OCCNC(C(C)C)C(=O)N(C)C(C(C)O)C(=O)NC(Cc2c[nH]c3ccccc23)C(=O)N1 (centres unmarked) [Compound 1806] |  | C (C = 10-100 nM) | 100 to 500 | 10 to 100 |  |  | 
12 | CCC1CCc2ccccc2OCCNC(C(C)C)C(=O)N(C)C(C(C)O)C(=O)NC(Cc2c[nH]c3ccc(F)cc23)C(=O)N1 (centres unmarked) [Compound 1808] |  | B (B = 1-10 nM) | 10 to 50 | 1 to 10 |  |  | 
13 | CCC1CCc2ccc(F)cc2OCCNC(C(C)C)C(=O)N(C)C(C(C)O)C(=O)NC(Cc2cn(S(=O)(=O)c3ccc(C)cc3)c3ccccc23)C(=O)N1 (centres unmarked) [Compound 1812] |  | C (C = 10-100 nM) | 50 to 100 | 10 to 100 |  |  | 
14 | CCC1CCc2ccc(F)cc2OCCNC(CC)C(=O)N(C)C(C(C)O)C(=O)NC(Cc2ccccc2)C(=O)N1 (centres unmarked) [Compound 1854] |  |  | 100 to 500 | 100 to 500 |  |  | 
15 | CCC1CCc2ccc(F)cc2OCCNC(CC)C(=O)N(C)C(C(C)O)C(=O)NC(Cc2ccc(F)cc2)C(=O)N1 (centres unmarked) [Compound 1855] |  |  | 100 to 500 | 10 to 100 |  |  | 
16 | CC(O)[C@H]1C(=O)N[C@H](Cc2ccc(Cl)cc2)C(=O)N[C@H](C)CCc2ccc(F)cc2OCCN[C@@H](C2(C)CC2)C(=O)N1C (some centres unmarked) [Compound 1872] |  |  | 10 to 50 | 1 to 10 |  |  | 
17 | CC[C@@H]1CCc2ccc(F)cc2OCCN[C@@H](C2(C)CC2)C(=O)N(C)[C@@H](C(C)O)C(=O)N[C@H](Cc2ccc(Cl)cc2)C(=O)N1 (some centres unmarked) [Compound 1875] |  |  | 50 to 100 | 1 to 10 |  |  | 
18 | CC(O)[C@H]1C(=O)N[C@H](Cc2ccc(F)cc2)C(=O)NCC#Cc2ccccc2OCCN[C@@H](C2(C)CC2)C(=O)N1C (some centres unmarked) [Compound 1879] |  |  | 10 to 50 | 10 to 100 |  |  | 
19 | CC(O)[C@H]1C(=O)N[C@H](Cc2ccc(F)cc2)C(=O)NCC#Cc2c(F)cccc2OCCN[C@@H](C2(C)CC2)C(=O)N1C (some centres unmarked) [Compound 1884] |  |  | 10 to 50 | 1 to 10 |  |  | 
